In ChEMBL document CHEMBL2073810, “Mrp2 is essential for estradiol-17beta(beta-D-glucuronide)-induced cholestasis in rats” (Hepatology, 2000):

Assays:
Assay type in all cases: functional, cell membranes, Membrane vesicle
Bile salt export pump [1] = target: T1, Bile salt export pump (Rattus norvegicus, UniProt O70127); assay: TP_TRANSPORTER: inhibition of Taurocholate uptake (Taurochorate: 1 uM, E217betaG: 50 uM) in membrane vesicles from Bsep-expressing Sf9 cells; conditions: sf9, 50 µM
T1 sequence (O70127 whole entry): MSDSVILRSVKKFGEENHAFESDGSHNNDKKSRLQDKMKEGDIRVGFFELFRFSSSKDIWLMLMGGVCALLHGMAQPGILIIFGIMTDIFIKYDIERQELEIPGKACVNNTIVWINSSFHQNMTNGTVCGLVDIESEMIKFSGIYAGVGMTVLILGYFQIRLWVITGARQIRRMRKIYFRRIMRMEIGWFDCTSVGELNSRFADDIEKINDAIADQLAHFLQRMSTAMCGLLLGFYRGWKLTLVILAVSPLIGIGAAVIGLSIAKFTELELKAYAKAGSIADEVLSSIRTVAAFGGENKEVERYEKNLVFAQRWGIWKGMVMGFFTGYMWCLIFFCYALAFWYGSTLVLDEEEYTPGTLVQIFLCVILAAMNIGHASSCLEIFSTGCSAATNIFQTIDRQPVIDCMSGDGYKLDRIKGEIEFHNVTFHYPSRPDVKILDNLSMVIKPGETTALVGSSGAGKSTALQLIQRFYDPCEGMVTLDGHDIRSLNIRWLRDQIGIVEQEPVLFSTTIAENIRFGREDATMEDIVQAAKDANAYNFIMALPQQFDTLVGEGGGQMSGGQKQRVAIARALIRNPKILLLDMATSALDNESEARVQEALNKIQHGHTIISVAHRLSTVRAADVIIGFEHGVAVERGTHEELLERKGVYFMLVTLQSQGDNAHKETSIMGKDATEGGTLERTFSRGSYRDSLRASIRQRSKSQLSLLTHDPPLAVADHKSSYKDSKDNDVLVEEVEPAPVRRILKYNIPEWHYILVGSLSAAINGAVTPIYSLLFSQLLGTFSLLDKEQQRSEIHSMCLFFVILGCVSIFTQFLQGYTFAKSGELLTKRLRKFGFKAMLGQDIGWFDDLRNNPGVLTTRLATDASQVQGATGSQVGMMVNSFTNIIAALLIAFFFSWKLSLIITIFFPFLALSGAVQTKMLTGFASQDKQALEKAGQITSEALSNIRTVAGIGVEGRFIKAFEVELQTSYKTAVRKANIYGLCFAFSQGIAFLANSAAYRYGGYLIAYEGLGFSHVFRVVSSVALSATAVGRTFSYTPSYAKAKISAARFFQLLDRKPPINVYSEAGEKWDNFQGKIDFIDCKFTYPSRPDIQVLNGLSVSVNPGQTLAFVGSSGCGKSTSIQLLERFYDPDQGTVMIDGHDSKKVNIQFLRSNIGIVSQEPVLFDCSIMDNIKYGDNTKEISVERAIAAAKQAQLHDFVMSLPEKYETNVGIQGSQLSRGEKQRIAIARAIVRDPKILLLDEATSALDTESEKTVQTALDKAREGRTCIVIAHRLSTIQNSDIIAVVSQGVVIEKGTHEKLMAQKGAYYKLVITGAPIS

Bile salt export pump [2] = target: T1, Bile salt export pump; assay: TP_TRANSPORTER: inhibition of Taurocholate uptake (Taurochorate: 1uM, Ethinyl estradiol: 25 uM) in membrane vesicles from Bsep-expressing Sf9 cells; conditions: sf9, 25 µM
Bile salt export pump [3] = target: T1, Bile salt export pump; assay: TP_TRANSPORTER: inhibition of Taurocholate uptake (Taurochorate: 100 uM, TLC: 10 uM) in membrane vesicles from Bsep-expressing Sf9 cells; conditions: sf9, 10 µM

For `C[C@]12CC[C@@H]3c4ccc(O)cc4CC[C@H]3[C@@H]1CC[C@@H]2O[C@@H]1O[C@H](C(=O)O)[C@@H](O)[C@H](O)[C@H]1O` [ESTRADIOL 17B GLUCURONIDE], the Activity (Bile salt export pump [1]) was “is not an inhibitor [-]”.
For `C#C[C@]1(O)CC[C@H]2[C@@H]3CCc4cc(O)ccc4[C@H]3CC[C@@]21C` [ETHINYL ESTRADIOL], the Activity (Bile salt export pump [2]) was “is not an inhibitor [-]”.
`C[C@H](CCC(=O)NCCS(=O)(=O)O)[C@H]1CC[C@H]2[C@@H]3CC[C@@H]4C[C@H](O)CC[C@]4(C)[C@H]3CC[C@]12C` [TAUROLITHOCHOLIC ACID] was tested, and the Activity (Bile salt export pump [3]) was “inhibitor [+]”.
